Reference: patent US20250230226A1, “PLXDC1/PLXDC2 ACTIVATORS AND THEIR USE IN THE TREATMENT OF BLOOD VESSEL DISORDERS” (THE REGENTS OF THE UNIVERSITY OF CALIFORNIA, priority 2019, published 2025)

Columns and labels:
[1] = test system: LL/2 lung cancer tumor endothelial cells; assay: Lung LL2 ex vivo model of tumor angiogenesis; format: cell-based, mouse; settings: for Cell death / 48 hrs (morphology observations): 40 μm; for Cell death: drug treatment for two days, ratio of red area to total endothelial cell area; for 48 hrs (morphology observations): LL/2 tumor endothelial cells; for cytotoxicity at 40 µM: Mus musculus, Endothelial cell, 48 h, read-out: Cell death
Outline: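 LL2 mouse tumor fragments (~0.075 mm³) embedded in Matrigel and cultured in endothelial growth medium at 37 °C until endothelial outgrowth (~4 days) before treatment. Cell death assessed e.g. 48 h after drug by fluorescein diacetate (live)/propidium iodide (dead) staining and red/green fluorescence imaging.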

[2] = test system: CT26.CL25 colon cancer tumor endothelial cells; assay: Colon CT26 ex vivo model of tumor angiogenesis; format: cell-based, mouse; settings: for 48 hrs (morphology observations after 48 hours): Conc. 40 μm; for cytotoxicity at 40 µM: Mus musculus, Endothelial cell, 48 h, read-out: Cell death
Protocol: An ex vivo tumor angiogenesis model was developed to test the efficacy of anti-cancer candidate agents. The following protocol describes the Ex Vivo Tumor Angiogenesis Model.
• 1. The day before the experiment, all necessary tools were sprayed with 70% ethanol and sterilized under UV light overnight, including blade, dissecting and micro-dissecting scissors and […]. 24-well dishes were placed at 4° C. to pre-chill plates and Matrigel was thawed, 24 hours before tumor dissection. • 2. 70% ethanol was sprayed on working bench. Two sterile petri dishes were prepared with 10 ml sterile PBS. The following steps 3 and 4 are necessary for mouse tumor models. For fresh human tumor, steps 3 and 4 are skipped. • 3. The tumor-bearing mice were euthanized. 70% ethanol was sprayed on the mouse and the tumor was removed using sterilized dissecting tools (avoid the fur). The tumor was rinsed in petri dish with sterile PBS to remove ethanol and fur. The tumor was transferred to a new petri dish with PBS for dissection. The dish is placed on ice. • 4. Pre-chilled sterile pipet tips were used to seed regular Matrigel in 24 well plates on ice. Matrigel (30 μl) was dropped in the middle of each well without touching the edge of the well (avoid introducing bubbles if possible). • 5. The tumor was cut in halves using the sterile blade. Healthy tumor tissue that is not necrotic and is within the tumor capsule was identified and isolated. The healthy tumor tissue was cut into small pieces. For instance, a suitable size for the tumor tissue is 0.5 mm (H)×0.5 mm (L)×0.3 mm (D) with a total volume of 0.075 mm^3. • 6. Each tumor piece was gently transferred and embedded in the Matrigel drop in the 24-well plate. The embedded piece was placed in the bottom and middle of each Matrigel drop. The plate was kept on ice all the time. • 7. After seeding the tumor pieces, plates were incubated in a 37° C. cell culture incubator without medium for 10 minutes in order for the Matrigel to solidify. • 8. Endothelial Growth Medium (0.5 ml) was added to each well and incubated at 37° C. with 5% CO2. Treatment was not added until the new endothelial cells was grown out of the tumor or were larger than 3 mm in diameter. This usually takes 4 days for the LL2 Lewis lung cancer model and 7 days for the CT26 colon cancer model. For human tumor models, the growth time is typically 2-3 weeks, depending on the tumor type. Media was changed every 4 days during prolonged culture. Typically, when the tumor tissue grows to 2 mm in diameter, it was good for drug testing. A size of about 3 mm in diameter can make visualization easier. • 9. When the assay was ready to be analyzed for cell death (e.g., 48 hours after drug addition), the dye mixture was prepared by mixing 6 μl of green dye to stain live cells (5 mg/ml Fluorescein diacetate or FDA in DMSO) with 30 μl of red dye (2.5 mg/ml Propidium iodide or PI in PBS) to stain dead cells in an Eppendorf tube. The FDA dye needs to be stored frozen in a −20° C. freezer because it has a labile ester bond. • 10. 1 μl of the dye mixture was added to each well of the 24-well dish. It is usually preferred to do one 24-well dish at a time given the amount of time needed to take pictures (the green dye is not as stable in the cells in the long term). • 11. The dish was gently rocked a few times to mix the dye with the media in the wells and incubate the dish at 37° C. for 10 min (too long incubation can make the green signal too intense). • 12. Each well was washed with 0.5 ml of sterile PBS and then 0.5 ml of phenol red free SFM was added to each well. Alternatively 0.5 ml of regular Endothelial Cell Growth Media can be added to each well if this well needs to be continuously maintained after the experiment. • 13. An inverted microscope using the 2× objective lens was used to observe morphological changes in the experimental wells. • 14. […]

SMILES	Cell death [1] [%]	48 hrs (morphology observations after 48 hours) [2]	cytotoxicity at 40 µM [2] [%]	48 hrs (morphology observations) [1]	cytotoxicity at 40 µM [1] [%]
CCc1ccc(S(=O)(=O)c2cnc3ccc(OC(F)(F)F)cc3c2N2CCCN(CC(=O)O)CC2)cc1 [Compound 42]	30	0	0		
COc1ccc(S(=O)(=O)c2cnc3ccc(OC(F)(F)F)cc3c2N2CCC(N3CCCCC3)CC2)cc1 [Compound 43]	100	*** (100% of endothelial cells vesicularize in cell shape)	90	*** (more than 50% but less than 100% of endothelial cells vesicularize in cell shape)	
COc1ccc(S(=O)(=O)c2cnc3ccc(OC(F)(F)F)cc3c2N2CCC(O)CC2)cc1 [Compound 44]	50	0	0		
CCc1ccc(S(=O)(=O)c2cnc3ccc(OC(F)(F)F)cc3c2N2CCN(c3ccc(C#N)cc3)CC2)cc1 [Compound 45]		0	0		10
CCc1ccc(S(=O)(=O)c2cnc3ccc(OC(F)(F)F)cc3c2N2CCC(N3CCCC3)CC2)cc1 [Compound 46]		**** (100% of endothelial cells vesicularize in cell shape and look flattened in morphology (indicating disintegration of the cell body))	100	**** (100% of endothelial cells vesicularize in cell shape and look flattened in morphology (indicating disintegration of the cell body))	100
CCOC(=O)C1CCN(c2c(S(=O)(=O)c3ccc(CC)cc3)cnc3ccc(OC(F)(F)F)cc23)CC1 [Compound 47]	50	0	10		
CCc1ccc(S(=O)(=O)c2cnc3ccc(OC(F)(F)F)cc3c2N2CCC(CO)CC2)cc1 [Compound 48]	60	0	10		
CCc1ccc(S(=O)(=O)c2cnc3ccc(OC(F)(F)F)cc3c2N(C)Cc2ccccc2)cc1 [Compound 49]	30	0	10		
CCc1ccc(S(=O)(=O)c2cnc3ccc(OC(F)(F)F)cc3c2NN2CCN(C)CC2)cc1 [Compound 50]	90	*** (100% of endothelial cells vesicularize in cell shape)	100	*** (more than 50% but less than 100% of endothelial cells vesicularize in cell shape)	
CCc1ccc(S(=O)(=O)c2cnc3ccc(OC(F)(F)F)cc3c2-n2cncn2)cc1 [Compound 51]	100	*** (100% of endothelial cells vesicularize in cell shape)	20	**** (100% of endothelial cells vesicularize in cell shape and look flattened in morphology (indicating disintegration of the cell body))	
CCCCN(CCCC)c1c(S(=O)(=O)c2ccc(OC)c(OC)c2)cnc2ccc(SC)cc12 [Compound 124]		0	20		
CCOC(=O)c1ccc2ncc(S(=O)(=O)c3ccc(CC)cc3)c(N3CCC(O)(c4ccc(CC)cc4)CC3)c2c1 [Compound 128]		0	10		
CCc1ccc(C2(O)CCN(c3c(S(=O)(=O)c4ccc(OC)cc4)cnc4ccc(OC(F)(F)F)cc34)CC2)cc1 [Compound 129]		0	0		
CCOC(=O)c1ccc2ncc(S(=O)(=O)c3ccc(CC)cc3)c(N3CCC(N4CCC(O)CC4)CC3)c2c1 [Compound 130]		0	40		
CCOC(=O)c1ccc2ncc(S(=O)(=O)c3ccc(CC)cc3)c(N3CCCN(CCN(CC)CC)CC3)c2c1 [Compound 131]		** (more than 50% but less than 100% of endothelial cells vesicularize in cell shape)	50		
CCOC(=O)c1ccc2ncc(S(=O)(=O)c3ccc(CC)cc3)c(N3CCC(OCCN(CC)CC)CC3)c2c1 [Compound 132]		* (50% or less of cells vesicularize in cell shape)	40		

SMILES	Cell death [1] [%]	48 hrs (morphology observations after 48 hours) [2]	cytotoxicity at 40 µM [2] [%]	48 hrs (morphology observations) [1]	cytotoxicity at 40 µM [1] [%]
CCOC(=O)c1ccc2ncc(S(=O)(=O)c3ccc(CC)cc3)c(N3CCCC(O)C3)c2c1 (stereo not shown) [Compound 135]		0	30		
CCOC(=O)c1ccc2ncc(S(=O)(=O)c3ccc(OC)cc3)c(N3CCC(N4CCCCC4)CC3)c2c1 [Compound 136]		0	30		
CCOC(=O)c1ccc2ncc(S(=O)(=O)c3ccc(OC)cc3)c(N3CCCC(O)C3)c2c1 (stereo not shown) [Compound 137]		0	40		
CCOC(=O)c1ccc2ncc(S(=O)(=O)c3ccc(OC)cc3)c(N3CCC(N4CCC(O)CC4)CC3)c2c1 [Compound 138]		0	20		
CCOC(=O)c1ccc2ncc(S(=O)(=O)c3ccc(OC)cc3)c(N3CCCN(CCN(CC)CC)CC3)c2c1 [Compound 139]		0	40		
CCOC(=O)c1ccc2ncc(S(=O)(=O)c3ccc(OC)cc3)c(N3CCC(OCCN(CC)CC)CC3)c2c1 [Compound 140]		** (more than 50% but less than 100% of endothelial cells vesicularize in cell shape)	60		
CCOC(=O)c1ccc2ncc(S(=O)(=O)c3ccc(OC)cc3)c(N3CCCN(C)CC3)c2c1 [Compound 144]		0	30		
CCc1ccc(S(=O)(=O)c2cnc3ccc(OC(F)(F)F)cc3c2N2CCC(O)(c3ccc(OC)cc3)CC2)cc1 [Compound 145]		0	30		
COc1ccc(S(=O)(=O)c2cnc3ccc(OC(F)(F)F)cc3c2N2CCC(O)(c3cccc(OC)c3)CC2)cc1 [Compound 146]		0	0		
CCc1ccc(S(=O)(=O)c2cnc3ccc(OC(F)(F)F)cc3c2N2CCC(O)(c3ccc4c(c3)OCO4)CC2)cc1 [Compound 147]		0	0		
CCOC(=O)c1ccc2ncc(S(=O)(=O)c3ccc(CC)cc3)c(N3CCC(O)(c4ccc(OC)cc4)CC3)c2c1 [Compound 148]		0	0		
CCOC(=O)c1ccc2ncc(S(=O)(=O)c3ccc(CC)cc3)c(N3CCC(O)(c4cccc(OC)c4)CC3)c2c1 [Compound 149]		* (50% or less of cells vesicularize in cell shape)	20		
CCc1ccc(S(=O)(=O)c2cnc3ccc(OC(F)(F)F)cc3c2N2CCC(O)(c3cccc(OC)c3)CC2)cc1 [Compound 150]		0	10		
COc1ccc(S(=O)(=O)c2cnc3ccc(SC)cc3c2N2CCC(N3CCC(O)CC3)CC2)cc1OC [Compound 153]		* (50% or less of cells vesicularize in cell shape)	20		
CCCCOc1ccc(S(=O)(=O)c2cnc3ccc(SC)cc3c2N2CCCN(CCN3CCCC3)CC2)cc1 [Compound 207]		**** (100% of endothelial cells vesicularize in cell shape and look flattened in morphology (indicating disintegration of the cell body))	100		
